# Source: patent US6770673B1, “Therapeutic uses of arglabin in combination with other chemotherapy agents” (priority 1997, dated 2004)
# Marks after values point to notes of the source that are not given here.
# Columns and labels:
# X-653 cells = experiment: Viability of transformed cells, trypan blue exclusion; assay type: cell-based, mouse; settings: 12 μg/ml, 18 hours
# Procedure: (§1) Mouse mastocytoma (P-815), myeloma (Z-P3x63Ag8.653 and Pai) and human erthyroleukemia (K-562) cell lines were used. Primary cultures of normal mouse hepatocytes were isolated from mouse liver using collagenase. Mouse splenocytes were isolated using a glass homogenizer. Marrow cells were obtained by washing the bone marrow. See, for example, Shears, S. B. and Kirk, C. J. (1984), Biochem. J. 219:375-382.
# (§2) Cells were cultured in RPMI-1640 medium supplemented with 10% fetal calf serum, 100 mM L-glutamine and 50 μg/ml gentamycin at 37° C. under 5% CO2. Cells were seeded into 24-well plates at a density of 50,000 cells/well and grown until near confluency, approximately 2 days, then transferred to 96-well plates at the same density. […] Viability of the cells was determined by trypan blue exclusion. […] Approximately 25% of K-562 and X-653 cells survived at a concentration of 12 μg/ml, and the same proportion of P-815 cells survived at a concentration of about 25 μg/ml.
# P-815 cells = experiment: as above; assay type: cell-based, mouse; settings: about 25 μg/ml, 18 hours
# Procedure: as §1, §2
# geranylgeranylation = experiment: Protein prenylation in myeloma Pai cells, naphthol cleavage and HPLC; assay type: cell-based, mouse; settings: 60 μM, FIG. 8B
# Procedure: (§3) The cells were collected by centrifugation at 600×g for 10 minutes and then washed twice in PBS. Control cells were grown in the absence of drug. The cells were solubilized in lysis buffer (50 mM Tris, pH 7.4, 25 mM EDTA, 0.05% Tween, 0.01 M NaCl) for 30 minutes on ice. Lysates were made by homogenization for 5 minutes at 4° C. and precipitated by centrifugation at 12,000×g for 10 minutes. The supernatant was collected. Proteins were precipitated with trichloroacetic acid and then successively washed with ethanol and ethyl ether. A selective naphthol cleavage of the bond between isoprenoides and proteins was performed as described by Epstein, W. W et al., (1991) Proc. Natl. Acad. Sci. USA 88:9668-9670. In general, 5 mg of a potassium naphthoxide and naphthol 4:1 mixture was added to approximately 10 mg of precipitated protein. After addition of 50 μl of dimethylformamide, the tubes were gassed with argon, capped and heated to 100° C. for eight to 15 hours. Reaction products were extracted with hexane and analyzed by HPLC (Waters System) using a 0.4×15 cm reverse-phase Nova-Pac C18 column. The column was eluted with 20% water in acetonitrile at a flow of 1.0 ml/minute. Napthol cleavage products were detected at 360 nm (FIG. 8) with a full-scale deflection of 0.01 A unit. […]
# [1] = test system: farnesylation of proteins; experiment: as above; assay type: cell-based, mouse; settings: 60 μM, FIG. 8B
# Procedure: as §3
# sarcoma 45 = experiment: Disturbance of DNA synthesis in tumors (inhibition index); assay type: in vivo, rats; settings: drug resistant sarcoma 45, alone
# immune system [2] = experiment: Immunity of rats with initial and prospidin resistant tumors with metastases; assay type: in vivo; settings: sarcolysin, cisplatin
# M-1 Sarcoma = experiment: Inhibition of tumor growth in implanted tumors; assay type: in vivo, mice and rats; settings: dose 30 mg/kg
# K-562 cells = experiment: Viability of transformed cells, trypan blue exclusion; assay type: cell-based, human; settings: 12 μg/ml, 18 hours
# Procedure: as §1, §2
# cancer = experiment: Case records of selected patients, monochemotherapy; assay type: in vivo, human
# Source text: The following are abstracts from the case records of selected patients, who received dimethylaminoarglabin hydrochloride monochemotherapy.
# immune system [3] = experiment: Immunological indices in intact August rats; assay type: in vivo; settings: about 50 mg/kg IP daily for 10 days
# Source text: Additional immunological data were obtained from an “August” line of rats, weighing 140-160 g, with and without Pliss lymphosarcoma. […] Results are summarized in Table V. Overall, lyophilized-dimethylaminoarglabin hydrochloride stimulated delayed type hypersensitivity, but reduced all other studied indices in intact rats. In rats with Pliss Lymphosarcoma, the immune system was stimulated, as all studied indices increased.
# [4] = test system: end-stage (III-IV) cancer; experiment: First clinical trial, 51 patients
# Procedure: The patient population was 67.9% male and 32.1% female. […] Intrapleural administration was used for patients with pleurisy. Patients were given a very small dose and monitored for any signs of allergic reaction before proceeding. […] After 30-35 days, the dose was increased to 480 mg per day. […] It was estimated that the daily dose should be about 240-280 mg for typical cases. […] Additional courses of treatment were administered to some patients. Patient condition before treatment was rated on a scale of 1 to 3, where 1 was bedridden, 2 was a significant restriction on activity and 3 retained full activity. Therapeutic result was measured on a scale from 0 to 3, where 0 was no improvement, 1 was insignificant or improvement for less than a month, 2 was considerable improvement (25-50% reduction in tumor size) and 3 was sharp improvement (50-100% reduction in tumor size).
# Solubility in water = assay type: physicochemical
# [5] = test system: Sarcoma-45 resistant to 5-fluorouracil; experiment: Inhibition of growth of resistant tumour strains; assay type: in vivo, rats; settings: dose 50 mg/kg
# [6] = test system: Alveolar Cancer of the liver; experiment: Inhibition of tumor growth in implanted tumors; assay type: in vivo, mice and rats; settings: dose 50 mg/kg
# Leucemia P-388 = experiment: Implanted leukemia, inhibition / survival; assay type: in vivo, mice and rats
# [7] = LD50, intraperitoneal injection; assay type: in vivo; settings: 2% solution in DMSO
# Source text: (§4) Overall, the compounds in this family have low toxicity and are tolerated at dosages exceeding the therapeutic dosage.
# [8] = Toxicity and maximum tolerable doses of arglabin and derivatives; assay type: in vivo, rats, guinea pigs, mice, rabbits; settings: 2% aqueous solution, blood serum and hepatic tissue
# Source text: as §4
# Blood pressure was maintained.
# [9] = test system: drug resistant metastasis of Pliss' lymphosarcoma; experiment: Model of drug resistant metastasis of Pliss' lymphosarcoma; assay type: in vivo, rats; settings: alone
# Sarcoma-45 = experiment: Inhibition of tumor growth in implanted tumors; assay type: in vivo, rats
# PC-1 = experiment: Inhibition of tumor growth in implanted tumors; assay type: in vivo, mice and rats; settings: dose 30 mg/kg
compound,measurement,setting,value
CC1=CCC23OC2(C)CCC2C(CN(C)C)C(=O)OC2C13.Cl (stereo not drawn) [Dimethylaminoarglabin hydrochloride],cells survived,X-653 cells,Approximately 25%
same,cells survived,P-815 cells,Approximately 25%
same,average time of retention,"rat, in vivo",about 67 hours
same,brain tissue concentration,"rat, in vivo",23.9 µg/g
same,concentration in the liver,"rat, in vivo",228.6 µg/g
same,maximum lung concentration,"rat, in vivo",149.4 µg/g
same,maximum spleen concentration,"rat, in vivo",159 µg/g
same,penetration through the blood-brain barrier,"rat, in vivo",able to penetrate through the blood-brain barrier
same,total clearance,"rat, in vivo",0.5 mL/min
same,maximal level in the blood serum,"rat, in vivo, iv, 2 mg/kg",30 µg/mL
same,time of maximal level in the blood serum,"rat, in vivo, iv, 2 mg/kg",within one hour
same,volume of distribution,"rat, in vivo, iv, 2 mg/kg",large
same,kidney concentration,"rats, 24 hours",56.6 µg/g
same,concentration in skeletal muscle,"rats, within three hours after administration",176.4 µg/g
same,geranylgeranyl peak,geranylgeranylation,appeared as in the control
same,peak corresponding to the farnesylcysteine derivative,[1],does not appear on the chromatogram
same,DNA inhibition index,sarcoma 45,99%
same,effect on immunodepression caused by cytostatics,immune system [2],softened the immunodepressive effect of cytostatics
same,"Inhibition of Tumour Growth, % - M-1 Sarcoma",M-1 Sarcoma,83.5** %
same,cells survived,K-562 cells,Approximately 25%
same,condition of patient with brain tumor,"cancer; Patient A, case number 543, after the first course",condition was stabilized
same,infiltration of the right breast decreased,"cancer; Patient M, case number 305, breast cancer, 5 courses",50%
same,outcome of liver cancer,"cancer; patient, case number N2225, embryonal carcinoma of the liver, 120 mg IV daily",complete recovery
same,"Hemagglutination (RHG), Intact Rats After Treatment",immune system [3]; Decreased,43-53%
same,"Nitroblue tetrazolium (NBT), Intact Rats After Treatment",immune system [3]; Decreased,67-91%
same,"Spontaneous-erythrocyte rosette forming (E-ROK), Intact Rats After Treatment",immune system [3]; Decreased,64-84%
same,"Delayed type hypersensitivity, Intact Rats After Treatment",immune system [3]; Increased,153-207%
same,complaints at high dose,[4]; 480 mg per day,nausea and vomiting
same,patients with a considerable improvement,[4]; liver cancer,55.6%
same,patients with a considerable improvement,[4]; lung cancer,about 64%
same,patients with a considerable improvement,[4]; ovarian cancer,66%
same,patients with a considerable improvement,[4]; overall,approximately 30%
same,Note(s) - decrease in tumor,"[4]; patient 47, rectal cancer III stage, suppositories",50% decrease
same,hematopoiesis,[4]; patients,did not suppress hematopoiesis
same,toxicity,[4]; patients,little toxicity
same,taste reported immediately after administration,[4]; quickly dissipated,bitter taste
same,solubility in water,Solubility in water,soluble in water
same,"Inhibition of Tumour Strains Growth, % - Resistant Forms - Sarcoma-45 to 5-fluorouracil",[5],62.3%
same,"Inhibition of Tumour Growth, % - Alveolar Cancer of the liver",[6],80.0%
same,Leucemia P-388 PALT - increase in survival,Leucemia P-388; dose 30 mg/kg,+144%
same,Leucemia P-388 PALT - increase in survival,Leucemia P-388; dose 50 mg/kg,+109.0%
same,LD50,[7]; mice,190 to 220 mg/kg
same,LD50,[7]; rats,280 to 310 mg/kg
same,findings after prolonged daily intraperitoneal administration,[8],Reversible changes in glycolysis and tissue respiration
same,duration of life in comparison with the control group,[9],128%
same,"Inhibition of Tumour Growth, % - Sarcoma-45",Sarcoma-45; dose 30 mg/kg,86.5*** %
same,"Inhibition of Tumour Growth, % - Sarcoma-45",Sarcoma-45; dose 50 mg/kg,83.1** %
same,"Inhibition of Tumour Growth, % - PC-1",PC-1,84.3* %
